Measurements as given in US4537879A, “A47934 Antibiotic and process for production thereof” (Eli Lilly and Company, priority 1984, dated 1985).
Converted amounts (≈) assume the structure as drawn. Where two headings read alike, the source gives them in different places.

How the values were obtained:
[1] = Test 3: growth promotion in weanling pigs; assay type: in vivo; settings: 28 days
Protocol: Antibiotic A47934 was tested at levels of 10 and 50 ppm. in the diet of pigs initially weighing an average of about 23 pounds, compared with […]) administered in the diet at 110 ppm. The experiment was conducted in an environmentally controlled nursery facility with wire mesh floors in the pens. There were four replicates per treatment and four pigs per replicate for the 28-day experiment. There were six replicates of four pigs per replicate in the control group, which group received the unmedicated diet. The pigs were fed ad libitum on an 18 percent protein corn-soy ration having the following composition: At the end of the trial, the average weight of the individual pig had increased to 53 pounds.

S. pyogenes C203 = test: In vivo activity against experimental bacterial infection; settings: mice, two doses subcutaneously
[2] = system: Bacteroides thetaiotaomicron 1438; test: MIC against anaerobic bacteria, agar dilution; assay type: cell-based; settings: strain 1438
[3] = Precipitation from broth filtrate on acidification; assay type: physicochemical; settings: broth filtrate acidified
Description: Antibiotic A47934 can also be removed from the broth filtrate by adjusting such filtrate to about pH 3 with acid, for complete precipitation, followed by filtration. A47934 starts to precipitate at about pH 6.5 and is complete at about pH 3. Inorganic acids such as hydrochloric, sulfuric, and phosphoric, and organic acids such as acetic acid and formic acid are suitable for acidification. The crude A47934 thus obtained can be further purified by chromatographic procedures.

S. aureus (3055) = test: In vivo activity against experimental bacterial infection; settings: mice, two doses subcutaneously; S. aureus (3055) infection
[4] = Acute toxicity, intraperitoneal; assay type: in vivo; settings: mice, intraperitoneally
Protocol: Antibiotic A47934, when given intraperitoneally to mice, has an acute toxicity greater than 300 mg./kg.

[5] = system: Clostridium difficile strains; test: MIC against Clostridium difficile strains, agar-dilution; assay type: cell-based
Description: Antibiotic A47934 is also active against a number of strains of Clostridium difficile, as determined by the agar-dilution method.

Peptococcus prevoti 1281 = settings: strain 1281; agar dilution
Streptococcus Group D = test: MIC against a variety of bacteria, standard agar-dilution; assay type: cell-based
[6] = system: Peptostreptococcus intermedius 1264; test: MIC against anaerobic bacteria, agar dilution; assay type: cell-based; settings: strain 1264
[7] = system: Fusobacterium necrophorum 6054A; test: MIC against anaerobic bacteria, agar dilution; assay type: cell-based; settings: strain 6054A
S. pneumoniae (Park I) = test: In vivo activity against experimental bacterial infection; settings: mice, two doses subcutaneously
[8] = system: Bacteroides corrodens 1874; test: MIC against anaerobic bacteria, agar dilution; assay type: cell-based; settings: strain 1874
[9] = system: volatile fatty acids produced in the rumen; test: Test 1: in vitro modification of the ratio of volatile fatty acids produced in the rumen
Description: The effectiveness of antibiotic A47934 in modifying the ratio of volatile fatty acids produced in the rumen has been determined using the in vitro test described in Raun, U.S. Pat. No. 3,928,571 (Dec. 23, 1975), see the EXAMPLE therein. The data in Table 9, which follows, are reported as the ratio of VFA's produced in treated flasks to VFA's produced in untreated control flasks.

[10] = system: Bacteroides melaninogenicus; test: MIC against anaerobic bacteria, agar dilution; assay type: cell-based
[11] = system: Bacteroides vulgatis 1211; test: MIC against anaerobic bacteria, agar dilution; assay type: cell-based; settings: strain 1211
[12] = system: Fusobacterium symbiosum 1470; test: MIC against anaerobic bacteria, agar dilution; assay type: cell-based; settings: strain 1470
Staphylococcus aureus = test: MIC against a variety of bacteria, standard agar-dilution; assay type: cell-based
[13] = system: Clostridium septicum 1128; test: MIC against anaerobic bacteria, agar dilution; assay type: cell-based; settings: strain 1128
[14] = system: Propionibacterium acnes 79; test: MIC against anaerobic bacteria, agar dilution; assay type: cell-based; settings: strain 79
Salmonella typhi = test: MIC against a variety of bacteria, standard agar-dilution; assay type: cell-based
[15] = system: Peptostreptococcus anaerobius 1428; test: MIC against anaerobic bacteria, agar dilution; assay type: cell-based; settings: strain 1428
[16] = system: Clostridium difficile 2994; test: MIC against anaerobic bacteria, agar dilution; assay type: cell-based; settings: strain 2994
[17] = Test 2: growth promotion in chickens; assay type: in vivo, 8-day old Penobscot broilers; settings: chicks, 20 g./T. of feed, 21 days
Description: Chicks, 8-day old Penobscot broilers, were used in this test. A total of 560 chicks were used divided into groups of 7 birds each. […] The broiler starter ration has the following composition: Feed and water were available to all groups ad libitum for 21 days. Two time replicates were run.

[18] = system: Staphylococcus epidermidis; test: MIC against a variety of bacteria, standard agar-dilution; assay type: cell-based
Bacteroides fragilis = test: MIC against anaerobic bacteria, agar dilution; assay type: cell-based
Haemophilus influenza = test: MIC against a variety of bacteria, standard agar-dilution; assay type: cell-based
[19] = system: Streptococcus pyogenes C203; test: as above; assay type: cell-based; settings: strain C203
[20] = system: Eubacterium aerofaciens 1235; test: MIC against anaerobic bacteria, agar dilution; assay type: cell-based; settings: strain 1235
[21] = system: Peptococcus asaccharolyticus 1302; test: MIC against anaerobic bacteria, agar dilution; assay type: cell-based; settings: strain 1302
[22] = system: Clostridium perfringens 81; assay type: cell-based; settings: strain 81; agar dilution
[23] = system: Streptococcus pneumoniae Park 1; test: MIC against a variety of bacteria, standard agar-dilution; assay type: cell-based; settings: strain Park 1

SMILES: N[C@H]1C(=O)N[C@@H]2Cc3ccc(c(Cl)c3)Oc3cc4cc(c3O)Oc3ccc(cc3Cl)[C@@H](O)[C@@H]3NC(=O)[C@H](NC(=O)[C@@H]4NC(=O)[C@@H](NC2=O)c2cc(O)cc(c2)Oc2cc1ccc2OS(=O)(=O)O)c1cc(Cl)c(O)c(c1)-c1c(O)cc(O)cc1[C@@H](C(=O)O)NC3=O [Antibiotic A47934]
- ADF % Im-crease ([1]; 10 ppm in diet): -3.2%
- ADF (average daily feed consumption) ([1]; 10 ppm in diet): 1.83 lbs.
- ADG % Im-crease ([1]; 10 ppm in diet): 3.1%
- ADG (average daily gain) ([1]; 10 ppm in diet): 1.00 lbs.
- F/G % Improvement ([1]; 10 ppm in diet): 7.6%
- F/G (ratio of feed consumption to gain) ([1]; 10 ppm in diet): 1.82
- ADF % Im-crease ([1]; 50 ppm in diet): 4.7%
- ADF (average daily feed consumption) ([1]; 50 ppm in diet): 1.98 lbs.
- ADG % Im-crease ([1]; 50 ppm in diet): 10.3%
- ADG (average daily gain) ([1]; 50 ppm in diet): 1.07 lbs.
- F/G % Improvement ([1]; 50 ppm in diet): 6.1%
- F/G (ratio of feed consumption to gain) ([1]; 50 ppm in diet): 1.85
- ED50 (S. pyogenes C203): 3.38 mg./kg. × 2
- MIC [2]: 32.0 µg/mL (≈ 24.4 µM)
- pH at which A47934 starts to precipitate [3]: ~6.5 pH
- pH at which precipitation is complete [3]: ~3 pH
- ED50 (S. aureus (3055)): < 0.3 mg./kg. × 2
- acute toxicity [4]: greater than 300 mg./kg.
- MIC ([5]; strain 78): ≤ 0.5 µg/mL
- MIC ([5]; strain 107B): ≤ 0.5 µg/mL
- MIC ([5]; strain 111F): ≤ 0.5 µg/mL
- MIC ([5]; strain 1153): ≤ 0.5 µg/mL
- MIC ([5]; strain 2634): ≤ 1.0 µg/mL
- MIC ([5]; strain 3424-5B): ≤ 0.5 µg/mL
- MIC ([5]; strain 3816): ≤ 0.5 µg/mL
- MIC ([5]; strain 3950D): ≤ 0.5 µg/mL
- MIC ([5]; strain 6890): ≤ 0.5 µg/mL
- MIC ([5]; strain 8484): ≤ 0.5 µg/mL
- MIC ([5]; strain A-194): ≤ 0.5 µg/mL
- MIC ([5]; strain A-195): ≤ 0.5 µg/mL
- MIC ([5]; strain A-196): ≤ 0.5 µg/mL
- MIC ([5]; strain A-279): ≤ 1.0 µg/mL
- MIC ([5]; strain A-280): ≤ 0.5 µg/mL
- MIC ([5]; strain A-281): ≤ 0.5 µg/mL
- MIC ([5]; strain WAL-2112): ≤ 0.5 µg/mL
- MIC ([5]; strain WAL-3657): ≤ 0.5 µg/mL
- MIC ([5]; strain WAL-4268): ≤ 0.5 µg/mL
- MIC (Peptococcus prevoti 1281): 1.0 µg/mL (≈ 0.761 µM)
- MIC (Streptococcus Group D; strain 9960): 0.5 µg/mL (≈ 0.381 µM)
- MIC (Streptococcus Group D; strain X66): 0.5 µg/mL (≈ 0.381 µM)
- MIC [6]: 1.0 µg/mL (≈ 0.761 µM)
- MIC [7]: 0.25 µg/mL (≈ 0.19 µM)
- ED50 (S. pneumoniae (Park I)): 1.77 mg./kg. × 2
- MIC [8]: 32.0 µg/mL (≈ 24.4 µM)
- Acetate, ratio of VFA produced in treated flasks to untreated control flasks ([9]; 1 mcg./ml.): 0.99
- Butyrate, ratio of VFA produced in treated flasks to untreated control flasks ([9]; 1 mcg./ml.): 1.01
- Propionate, ratio of VFA produced in treated flasks to untreated control flasks ([9]; 1 mcg./ml.): 1.11
- Acetate, ratio of VFA produced in treated flasks to untreated control flasks ([9]; 2 mcg./ml.): 1.09
- Butyrate, ratio of VFA produced in treated flasks to untreated control flasks ([9]; 2 mcg./ml.): 1.03
- Propionate, ratio of VFA produced in treated flasks to untreated control flasks ([9]; 2 mcg./ml.): 1.10
- Acetate, ratio of VFA produced in treated flasks to untreated control flasks ([9]; 4 mcg./ml.): 0.81
- Butyrate, ratio of VFA produced in treated flasks to untreated control flasks ([9]; 4 mcg./ml.): 1.03
- Propionate, ratio of VFA produced in treated flasks to untreated control flasks ([9]; 4 mcg./ml.): 1.32
- Acetate, ratio of VFA produced in treated flasks to untreated control flasks ([9]; 10 mcg./ml.): 0.95
- Butyrate, ratio of VFA produced in treated flasks to untreated control flasks ([9]; 10 mcg./ml.): 1.00
- Propionate, ratio of VFA produced in treated flasks to untreated control flasks ([9]; 10 mcg./ml.): 1.12
- MIC ([10]; strain 1856/28): > 128.0 µg/mL
- MIC ([10]; strain 2736): 16.0 µg/mL (≈ 12.2 µM)
- MIC [11]: 32.0 µg/mL (≈ 24.4 µM)
- MIC [12]: 2.0 µg/mL (≈ 1.52 µM)
- MIC (Staphylococcus aureus): 0.125 µg/mL (≈ 0.0952 µM)
- MIC (Staphylococcus aureus; strain S13E): 0.125 µg/mL (≈ 0.0952 µM)
- MIC (Staphylococcus aureus; strain X1.1): 0.06 µg/mL (≈ 0.0457 µM)
- MIC (Staphylococcus aureus; strain X400): 0.25 µg/mL (≈ 0.19 µM)
- MIC [13]: 0.5 µg/mL (≈ 0.381 µM)
- MIC [14]: 1.0 µg/mL (≈ 0.761 µM)
- MIC (Salmonella typhi; strain 1335): > 128 µg/mL
- MIC (Salmonella typhi; strain X514): > 128 µg/mL
- MIC [15]: 0.25 µg/mL (≈ 0.19 µM)
- MIC [16]: 0.5 µg/mL (≈ 0.381 µM)
- Feed Efficiency % Impr. ([17]; first time replicate): 4.69%
- Feed Efficiency F/G ([17]; first time replicate): 1.707
- Weight Gain ([17]; first time replicate): 519 gm.
- Weight Gain % Impr. ([17]; first time replicate): 7.23%
- Feed Efficiency F/G ([17]; second time replicate): 1.746
- Weight Gain ([17]; second time replicate): 464 gm.
- Weight Gain % Impr. ([17]; second time replicate): 0%
- MIC ([18]; strain EPI1): 0.25 µg/mL (≈ 0.19 µM)
- MIC ([18]; strain EPI2): 2.0 µg/mL (≈ 1.52 µM)
- MIC (Bacteroides fragilis; strain 111): 32.0 µg/mL (≈ 24.4 µM)
- MIC (Bacteroides fragilis; strain 1877): 32.0 µg/mL (≈ 24.4 µM)
- MIC (Bacteroides fragilis; strain 1936B): 32.0 µg/mL (≈ 24.4 µM)
- MIC (Haemophilus influenza; strain 76): 4.0 µg/mL (≈ 3.05 µM)
- MIC (Haemophilus influenza; strain C.L.): 2.0 µg/mL (≈ 1.52 µM)
- MIC [19]: 0.25 µg/mL (≈ 0.19 µM)
- MIC [20]: 1.0 µg/mL (≈ 0.761 µM)
- MIC (Escherichia coli; strain EC14): > 128.0 µg/mL
- MIC (Escherichia coli; strain N10): > 128.0 µg/mL
- MIC (Escherichia coli; strain TEM): > 128.0 µg/mL
- MIC [21]: 0.5 µg/mL (≈ 0.381 µM)
- MIC [22]: 0.5 µg/mL (≈ 0.381 µM)
- MIC (Klebsiella pneumoniae; strain KAE): > 128.0 µg/mL
- MIC (Klebsiella pneumoniae; strain X26): > 128.0 µg/mL
- MIC [23]: 0.06 µg/mL (≈ 0.0457 µM)

SMILES: CC[C@H]1OC(=O)C[C@@H](O)[C@H](C)[C@@H](O[C@@H]2O[C@H](C)[C@@H](O[C@H]3C[C@@](C)(O)[C@@H](O)[C@H](C)O3)[C@H](N(C)C)[C@H]2O)[C@@H](CC=O)C[C@@H](C)C(=O)/C=C/C(C)=C/[C@@H]1CO[C@@H]1O[C@H](C)[C@@H](O)[C@@H](OC)[C@H]1OC [Tylan, tylosin, reference compound]
- ADF % Im-crease ([1]; 110 ppm in diet): 2.6%
- ADF (average daily feed consumption) ([1]; 110 ppm in diet): 1.94 lbs.
- ADG % Im-crease ([1]; 110 ppm in diet): 4.1%
- ADG (average daily gain) ([1]; 110 ppm in diet): 1.01 lbs.
- F/G % Improvement ([1]; 110 ppm in diet): 2.5%
- F/G (ratio of feed consumption to gain) ([1]; 110 ppm in diet): 1.92
